Laboratory results from ChEMBL document CHEMBL3860023, “Structural optimization of pyridine-type DAPY derivatives to exploit the tolerant regions of the NNRTI binding pocket” (Eur J Med Chem, 2016).

Test system: Human immunodeficiency virus 1
Test: Antiviral activity against HIV1 3B expressing wild type reverse transcriptase infected in human MT4 cells assessed as protection against virus-induced cytopathic effect after 5 days by MTT assay
Type: functional, cell-based
Conditions: Human immunodeficiency virus 1, 3B, MT4, 120 h

| SMILES | EC50 |
| --- | --- |
| Cc1cc(C#N)cc(C)c1Oc1cc(Cl)nc(NC2CCN(Cc3ccc(S(C)(=O)=O)cc3)CC2)c1 | 0.0091 µM |
| COc1cc(Oc2c(C)cc(C#N)cc2C)cc(NC2CCN(Cc3ccc(S(C)(=O)=O)cc3)CC2)n1 | 0.012 µM |
| Cc1cc(C)c(Oc2cc(Cl)nc(NC3CCN(Cc4ccccc4)CC3)c2)c(C)c1 | 0.15 µM |
| Cc1cc(C#N)cc(C)c1Oc1cc(Cl)nc(NC2CCN(Cc3ccccc3)CC2)c1 | 0.049 µM |
| COc1cc(Oc2c(C)cc(C#N)cc2C)cc(NC2CCN(CC3CC3)CC2)n1 | ≥ 9.2 µM |
| Cc1cc(C#N)cc(C)c1Oc1cc(Cl)nc(NC2CCN(Cc3ccc(C(N)=O)cc3)CC2)c1 | 0.01 µM |
| Cc1cc(C#N)cc(C)c1Oc1nc(Nc2ccc(C#N)cc2)nc(N)c1Br [ETRAVIRINE] | 0.0095 µM |
| Cc1cc(C#N)cc(C)c1Oc1cc(Cl)nc(NC2CCN(CC3CC3)CC2)c1 | ≥ 6.4 µM |
| Cc1cc(C)c(Oc2cc(Cl)nc(NC3CCN(CC4CC4)CC3)c2)c(C)c1 | > 5.2 µM |
| Cc1cc(C)c(Oc2cc(Nc3ccc(C#N)cc3)nc(OCCCN3CCOCC3)c2)c(C)c1 | 1.1 µM |
| Cc1cc(C)c(Oc2cc(Cl)nc(NC3CCN(CC4CCC4)CC3)c2)c(C)c1 | > 4.6 µM |
| COc1cc(Oc2c(C)cc(C#N)cc2C)cc(NC2CCN(Cc3ccc(C(N)=O)cc3)CC2)n1 | 0.02 µM |
| Cc1cc(C)c(Oc2cc(Cl)nc(Nc3ccc(CN4CCOCC4)cc3)c2)c(C)c1 | 2.4 µM |
| Nc1ccn([C@@H]2CS[C@H](CO)O2)c(=O)n1 [LAMIVUDINE] | 3.1 µM |
| Cc1cc(C)c(Oc2cc(Cl)nc(Nc3ccc(C#N)cc3)c2)c(C)c1 | 0.41 µM |

Test system: Human immunodeficiency virus 1
Test: Antiviral activity against HIV1 RES056 expressing reverse transcriptase K103N/Y181C double mutant infected in human MT4 cells assessed as protection against virus-induced cytopathic effect after 5 days by MTT assay
Type: functional, cell-based
Conditions: Human immunodeficiency virus 1, RES056, MT4, 120 h

| SMILES | EC50 |
| --- | --- |
| Cc1cc(C#N)cc(C)c1Oc1cc(Cl)nc(NC2CCN(Cc3ccc(S(C)(=O)=O)cc3)CC2)c1 | > 1.5 µM |
| COc1cc(Oc2c(C)cc(C#N)cc2C)cc(NC2CCN(Cc3ccc(S(C)(=O)=O)cc3)CC2)n1 | > 1.7 µM |
| Cc1cc(C)c(Oc2cc(Cl)nc(NC3CCN(Cc4ccccc4)CC3)c2)c(C)c1 | > 9.7 µM |
| Cc1cc(C#N)cc(C)c1Oc1cc(Cl)nc(NC2CCN(Cc3ccccc3)CC2)c1 | > 4.3 µM |
| Cc1cc(C#N)cc(C)c1Oc1cc(Cl)nc(NC2CCN(Cc3ccc(C(N)=O)cc3)CC2)c1 | ≥ 9.7 µM |
| Cc1cc(C)c(Oc2cc(Nc3ccc(C#N)cc3)nc(OCCCN3CCOCC3)c2)c(C)c1 | > 18.8 µM |
| COc1cc(Oc2c(C)cc(C#N)cc2C)cc(NC2CCN(Cc3ccc(C(N)=O)cc3)CC2)n1 | ≥ 6.6 µM |
| Cc1cc(C)c(Oc2cc(Cl)nc(Nc3ccc(CN4CCOCC4)cc3)c2)c(C)c1 | > 26 µM |
| Cc1cc(C)c(Oc2cc(Cl)nc(Nc3ccc(C#N)cc3)c2)c(C)c1 | > 10.8 µM |

Test system: not listed separately
Test: Cytotoxicity against mock-infected human MT4 cells assessed as reduction in cell viability after 5 days by MTT assay
Type: toxicity, cell-based
Conditions: not given

| SMILES | CC50 at 120 h |
| --- | --- |
| Cc1cc(C#N)cc(C)c1Oc1cc(Cl)nc(NC2CCN(Cc3ccc(S(C)(=O)=O)cc3)CC2)c1 | 1.5 µM |
| COc1cc(Oc2c(C)cc(C#N)cc2C)cc(NC2CCN(Cc3ccc(S(C)(=O)=O)cc3)CC2)n1 | 1.7 µM |
| Cc1cc(C)c(Oc2cc(Cl)nc(NC3CCN(Cc4ccccc4)CC3)c2)c(C)c1 | 9.7 µM |
| Cc1cc(C#N)cc(C)c1Oc1cc(Cl)nc(NC2CCN(Cc3ccccc3)CC2)c1 | 4.3 µM |
| COc1cc(Oc2c(C)cc(C#N)cc2C)cc(NC2CCN(CC3CC3)CC2)n1 | 8.6 µM |
| Cc1cc(C#N)cc(C)c1Oc1cc(Cl)nc(NC2CCN(Cc3ccc(C(N)=O)cc3)CC2)c1 | 9.8 µM |
| Cc1cc(C#N)cc(C)c1Oc1nc(Nc2ccc(C#N)cc2)nc(N)c1Br [ETRAVIRINE] | > 4.6 µM |
| Cc1cc(C#N)cc(C)c1Oc1cc(Cl)nc(NC2CCN(CC3CC3)CC2)c1 | 9.6 µM |
| Cc1cc(C)c(Oc2cc(Cl)nc(NC3CCN(CC4CC4)CC3)c2)c(C)c1 | 5.2 µM |
| Cc1cc(C)c(Oc2cc(Nc3ccc(C#N)cc3)nc(OCCCN3CCOCC3)c2)c(C)c1 | 18.8 µM |
| Cc1cc(C)c(Oc2cc(Cl)nc(NC3CCN(CC4CCC4)CC3)c2)c(C)c1 | 4.6 µM |
| COc1cc(Oc2c(C)cc(C#N)cc2C)cc(NC2CCN(Cc3ccc(C(N)=O)cc3)CC2)n1 | 22.9 µM |
| Cc1cc(C)c(Oc2cc(Cl)nc(Nc3ccc(CN4CCOCC4)cc3)c2)c(C)c1 | 26 µM |
| Nc1ccn([C@@H]2CS[C@H](CO)O2)c(=O)n1 [LAMIVUDINE] | > 87.2 µM |
| Cc1cc(C)c(Oc2cc(Cl)nc(Nc3ccc(C#N)cc3)c2)c(C)c1 | 10.8 µM |

Test system: not listed separately
Test: Selectivity index, ratio of CC50 for mock-infected human MT4 cells to EC50 for HIV1 3B expressing wild type reverse transcriptase
Type: toxicity, cell-based
Conditions: read-out: Ratio CC50/EC50

| SMILES | selectivity ratio |
| --- | --- |
| Cc1cc(C#N)cc(C)c1Oc1cc(Cl)nc(NC2CCN(Cc3ccc(S(C)(=O)=O)cc3)CC2)c1 | 168 |
| COc1cc(Oc2c(C)cc(C#N)cc2C)cc(NC2CCN(Cc3ccc(S(C)(=O)=O)cc3)CC2)n1 | 133 |
| Cc1cc(C)c(Oc2cc(Cl)nc(NC3CCN(Cc4ccccc4)CC3)c2)c(C)c1 | 63 |
| Cc1cc(C#N)cc(C)c1Oc1cc(Cl)nc(NC2CCN(Cc3ccccc3)CC2)c1 | 88 |
| COc1cc(Oc2c(C)cc(C#N)cc2C)cc(NC2CCN(CC3CC3)CC2)n1 | ≤ 1 |
| Cc1cc(C#N)cc(C)c1Oc1cc(Cl)nc(NC2CCN(Cc3ccc(C(N)=O)cc3)CC2)c1 | 1010 |
| Cc1cc(C#N)cc(C)c1Oc1cc(Cl)nc(NC2CCN(CC3CC3)CC2)c1 | ≤ 2 |
| Cc1cc(C)c(Oc2cc(Cl)nc(NC3CCN(CC4CC4)CC3)c2)c(C)c1 | < 1 |
| Cc1cc(C)c(Oc2cc(Nc3ccc(C#N)cc3)nc(OCCCN3CCOCC3)c2)c(C)c1 | 18 |
| Cc1cc(C)c(Oc2cc(Cl)nc(NC3CCN(CC4CCC4)CC3)c2)c(C)c1 | < 1 |
| COc1cc(Oc2c(C)cc(C#N)cc2C)cc(NC2CCN(Cc3ccc(C(N)=O)cc3)CC2)n1 | 1140 |
| Cc1cc(C)c(Oc2cc(Cl)nc(Nc3ccc(CN4CCOCC4)cc3)c2)c(C)c1 | 11 |
| Nc1ccn([C@@H]2CS[C@H](CO)O2)c(=O)n1 [LAMIVUDINE] | > 28 |
| Cc1cc(C)c(Oc2cc(Cl)nc(Nc3ccc(C#N)cc3)c2)c(C)c1 | 26 |

Test system: not listed separately
Test: Selectivity index, ratio of CC50 for mock-infected human MT4 cells to EC50 for HIV1 RES056 expressing reverse transcriptase K103N/Y181C double mutant
Type: toxicity, cell-based
Conditions: read-out: Ratio CC50/EC50

| SMILES | selectivity ratio |
| --- | --- |
| Cc1cc(C#N)cc(C)c1Oc1cc(Cl)nc(NC2CCN(Cc3ccc(S(C)(=O)=O)cc3)CC2)c1 | < 1 |
| COc1cc(Oc2c(C)cc(C#N)cc2C)cc(NC2CCN(Cc3ccc(S(C)(=O)=O)cc3)CC2)n1 | < 1 |
| Cc1cc(C)c(Oc2cc(Cl)nc(NC3CCN(Cc4ccccc4)CC3)c2)c(C)c1 | < 1 |
| Cc1cc(C#N)cc(C)c1Oc1cc(Cl)nc(NC2CCN(Cc3ccccc3)CC2)c1 | < 1 |
| Cc1cc(C#N)cc(C)c1Oc1cc(Cl)nc(NC2CCN(Cc3ccc(C(N)=O)cc3)CC2)c1 | ≤ 1 |
| Cc1cc(C)c(Oc2cc(Nc3ccc(C#N)cc3)nc(OCCCN3CCOCC3)c2)c(C)c1 | < 1 |
| COc1cc(Oc2c(C)cc(C#N)cc2C)cc(NC2CCN(Cc3ccc(C(N)=O)cc3)CC2)n1 | ≤ 3 |
| Cc1cc(C)c(Oc2cc(Cl)nc(Nc3ccc(CN4CCOCC4)cc3)c2)c(C)c1 | < 1 |
| Cc1cc(C)c(Oc2cc(Cl)nc(Nc3ccc(C#N)cc3)c2)c(C)c1 | < 1 |

Test system: not listed separately
Test: Solubility of the compound
Type: physicochemical
Conditions: not given

| SMILES | solubility |
| --- | --- |
| Cc1cc(C#N)cc(C)c1Oc1cc(Cl)nc(NC2CCN(Cc3ccc(S(C)(=O)=O)cc3)CC2)c1 | > 48 µM |
| COc1cc(Oc2c(C)cc(C#N)cc2C)cc(NC2CCN(Cc3ccc(S(C)(=O)=O)cc3)CC2)n1 | > 48 µM |
| Cc1cc(C)c(Oc2cc(Cl)nc(NC3CCN(Cc4ccccc4)CC3)c2)c(C)c1 | > 287 µM |
| Cc1cc(C#N)cc(C)c1Oc1cc(Cl)nc(NC2CCN(Cc3ccccc3)CC2)c1 | > 56 µM |
| COc1cc(Oc2c(C)cc(C#N)cc2C)cc(NC2CCN(CC3CC3)CC2)n1 | > 307 µM |
| Cc1cc(C#N)cc(C)c1Oc1cc(Cl)nc(NC2CCN(Cc3ccc(C(N)=O)cc3)CC2)c1 | > 51 µM |
| Cc1cc(C#N)cc(C)c1Oc1nc(Nc2ccc(C#N)cc2)nc(N)c1Br [ETRAVIRINE] | < 1 µM |
| Cc1cc(C#N)cc(C)c1Oc1cc(Cl)nc(NC2CCN(CC3CC3)CC2)c1 | > 304 µM |
| Cc1cc(C)c(Oc2cc(Cl)nc(NC3CCN(CC4CC4)CC3)c2)c(C)c1 | > 62 µM |
| Cc1cc(C)c(Oc2cc(Nc3ccc(C#N)cc3)nc(OCCCN3CCOCC3)c2)c(C)c1 | > 11 µM |
| Cc1cc(C)c(Oc2cc(Cl)nc(NC3CCN(CC4CCC4)CC3)c2)c(C)c1 | > 60 µM |
| COc1cc(Oc2c(C)cc(C#N)cc2C)cc(NC2CCN(Cc3ccc(C(N)=O)cc3)CC2)n1 | > 257 µM |
| Cc1cc(C)c(Oc2cc(Cl)nc(Nc3ccc(CN4CCOCC4)cc3)c2)c(C)c1 | > 57 µM |
| Cc1cc(C)c(Oc2cc(Cl)nc(Nc3ccc(C#N)cc3)c2)c(C)c1 | > 14 µM |

Biological target: Human immunodeficiency virus type 1 reverse transcriptase (Human immunodeficiency virus 1, UniProt Q72547)
Test: Inhibition of recombinant wild type HIV1 p66/p51 using poly(rA) template/oligo(dT)16 primer after 40 mins by PicoGreen-based spectrofluorometric method
Conditions: not given

| SMILES | IC50 |
| --- | --- |
| Cc1cc(C#N)cc(C)c1Oc1cc(Cl)nc(NC2CCN(Cc3ccc(S(C)(=O)=O)cc3)CC2)c1 | 0.08 µM |
| COc1cc(Oc2c(C)cc(C#N)cc2C)cc(NC2CCN(Cc3ccc(S(C)(=O)=O)cc3)CC2)n1 | 0.175 µM |
| Cc1cc(C)c(Oc2cc(Cl)nc(NC3CCN(Cc4ccccc4)CC3)c2)c(C)c1 | 0.287 µM |
| Cc1cc(C#N)cc(C)c1Oc1cc(Cl)nc(NC2CCN(Cc3ccccc3)CC2)c1 | 0.168 µM |
| Cc1cc(C#N)cc(C)c1Oc1cc(Cl)nc(NC2CCN(Cc3ccc(C(N)=O)cc3)CC2)c1 | 0.09 µM |
| Cc1cc(C)c(Oc2cc(Nc3ccc(C#N)cc3)nc(OCCCN3CCOCC3)c2)c(C)c1 | 4.06 µM |
| COc1cc(Oc2c(C)cc(C#N)cc2C)cc(NC2CCN(Cc3ccc(C(N)=O)cc3)CC2)n1 | 0.113 µM |
| Cc1cc(C)c(Oc2cc(Cl)nc(Nc3ccc(CN4CCOCC4)cc3)c2)c(C)c1 | 2.62 µM |
| Cc1cc(C)c(Oc2cc(Cl)nc(Nc3ccc(C#N)cc3)c2)c(C)c1 | 0.248 µM |
